Laboratory results as given in PubChem BioAssay AID248 (DTP/NCI, 2004).
Where “and” joins values, the source holds several entries; their conditions need not be identical. Equal entries are not always repeated. Inconclusive results and toxic doses are left out. Cut-off read from the data, not from the text of the source: active = T/C of 150% or more; inactive = T/C below 125%.

Tested on: L1210 leukemia ip in BDF1 mice, survival T/C
Experiment: NCI In Vivo Anticancer Drug Screen. Data for tumor model L1210 Leukemia (intraperitoneal) in B6D2F1 (BDF1) mice
Details: endpoint: mean survival time, higher = longer survival
In short: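 Tumor was transplanted into mice, which were then dosed with test compound or vehicle alone. Survival was recorded for each group, and the treated figure was expressed relative to the control figure.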

[1] = dose: 100.0 mg/kg/injection, schedule: Q01DX001 (ip), vehicle: saline
[2] = dose: 200.0 mg/kg/injection, schedule: Q01DX001 (ip), vehicle: saline
[3] = dose: 400.0 mg/kg/injection, schedule: Q01DX001 (ip), vehicle: saline
[4] = dose: 100.0 mg/kg/injection, schedule: Q04DX003 (ip), vehicle: saline
[5] = dose: 100.0 mg/kg/injection, schedule: Q04DX002 (ip), vehicle: Klucel (hydroxypropylcellulose) (HPC)
[6] = dose: 200.0 mg/kg/injection, schedule: Q04DX002 (ip), vehicle: Klucel (hydroxypropylcellulose) (HPC)
[7] = dose: 400.0 mg/kg/injection, schedule: Q04DX002 (ip), vehicle: Klucel (hydroxypropylcellulose) (HPC)
[8] = dose: 100.0 mg/kg/injection, schedule: Q01DX009 (ip), vehicle: Klucel (hydroxypropylcellulose) (HPC)
[9] = dose: 100.0 mg/kg/injection, schedule: Q04DX003 (ip), vehicle: Klucel (hydroxypropylcellulose) (HPC)
[10] = dose: 200.0 mg/kg/injection, schedule: Q01DX009 (ip), vehicle: Klucel (hydroxypropylcellulose) (HPC)
[11] = dose: 200.0 mg/kg/injection, schedule: Q04DX003 (ip), vehicle: Klucel (hydroxypropylcellulose) (HPC)
[12] = dose: 400.0 mg/kg/injection, schedule: Q01DX009 (ip), vehicle: Klucel (hydroxypropylcellulose) (HPC)
[13] = dose: 400.0 mg/kg/injection, schedule: Q04DX003 (ip), vehicle: Klucel (hydroxypropylcellulose) (HPC)
[14] = dose: 25.0 mg/kg/injection, schedule: Q04DX003 (ip), vehicle: saline
[15] = dose: 12.5 mg/kg/injection, schedule: Q04DX003 (ip), vehicle: saline with Tween-80
[16] = dose: 25.0 mg/kg/injection, schedule: Q04DX003 (ip), vehicle: saline with Tween-80
[17] = dose: 50.0 mg/kg/injection, schedule: Q04DX003 (ip), vehicle: saline with Tween-80
[18] = dose: 100.0 mg/kg/injection, schedule: Q04DX002 (ip), vehicle: saline with Tween-80
[19] = dose: 200.0 mg/kg/injection, schedule: Q04DX002 (ip), vehicle: saline with Tween-80
[20] = dose: 400.0 mg/kg/injection, schedule: Q04DX002 (ip), vehicle: saline with Tween-80
[21] = dose: 100.0 mg/kg/injection, schedule: Q04DX003 (ip), vehicle: saline with Tween-80
[22] = dose: 100.0 mg/kg/injection, schedule: Q01DX001 (ip), vehicle: Klucel (hydroxypropylcellulose) (HPC)
[23] = dose: 200.0 mg/kg/injection, schedule: Q01DX001 (ip), vehicle: Klucel (hydroxypropylcellulose) (HPC)

Measured: T/C

O=[N+]([O-])c1ccc(S(=O)(=O)CC(Cl)c2ccccc2)cc1 (stereo not drawn)
inactive: [1] 102 % of control | dose: 100.0 mg/kg/injection, schedule: Q01DX009 (ip), vehicle: acetone 86 % of control | [2] 107 % of control | dose: 200.0 mg/kg/injection, schedule: Q01DX009 (ip), vehicle: acetone 94 % of control | [3] 110 % of control | dose: 400.0 mg/kg/injection, schedule: Q01DX009 (ip), vehicle: acetone 96 % of control

NCC(O)C(O)C(O)C(O)CO (stereo not drawn)
inactive: [1] 103 % of control | [2] 95 % of control

CCCCCCCCCCCC(CCCCCCCC)CCCCCCCC
inactive: [4] 94 % of control | dose: 200.0 mg/kg/injection, schedule: Q04DX003 (ip), vehicle: saline 93 % of control | dose: 400.0 mg/kg/injection, schedule: Q04DX003 (ip), vehicle: saline 100 % of control

CS(=O)(=O)OCC1OC(c2ccccc2)OC(C(CBr)OS(C)(=O)=O)C1OS(C)(=O)=O (stereo not drawn)
inactive: [5] 97 % of control | [6] 93 % of control | [7] 93 % of control

COc1ccc(C)cc1CN1NC(=O)CC1=N
inactive: [8] 97 % of control | [9] 106 % of control | [10] 101 % of control | [11] 110 % of control | [12] 98 % of control | [13] 102 % of control

CN1CCC(OC(=O)C2CC(=O)N(C)C(=O)C2)CC1
inactive: [14] 98 % of control | dose: 50.0 mg/kg/injection, schedule: Q04DX003 (ip), vehicle: saline 98 % of control | [4] 100 % of control

N#Cc1cc[n+](Cc2ccccc2)cc1
inactive: dose: 75.0 mg/kg/injection, schedule: Q01DX001 (ip), vehicle: saline 101 % of control | dose: 150.0 mg/kg/injection, schedule: Q01DX001 (ip), vehicle: saline 102 % of control

Fc1cccc2c1[nH]c1cc3ccncc3cc12
inactive: [9] 98 % of control | [11] 90 % of control | [13] 93 % of control

CC(CN(C)C)CN1c2ccccc2Sc2ccccc21 (stereo not drawn)
inactive: dose: 3.12 mg/kg/injection, schedule: Q04DX003 (ip), vehicle: saline with Tween-80 105 % of control | dose: 3.12 mg/kg/injection, schedule: Q04DX003 (ip), vehicle: saline 96 % of control | dose: 6.12 mg/kg/injection, schedule: Q04DX003 (ip), vehicle: saline with Tween-80 101 % of control | dose: 6.25 mg/kg/injection, schedule: Q04DX003 (ip), vehicle: saline 100 % of control and 104 % of control | [15] 105 % of control | dose: 12.5 mg/kg/injection, schedule: Q04DX003 (ip), vehicle: saline 102 % of control and 113 % of control | [16] 103 % of control | [14] 102 % of control | [17] 120 % of control

COC1=CCC(OC)=C(C)C1
inactive: dose: 150.0 mg/kg/injection, schedule: Q01DX009 (ip), vehicle: saline 95 % of control | dose: 225.0 mg/kg/injection, schedule: Q01DX009 (ip), vehicle: saline 94 % of control

[O-][n+]1c2ccccc2c(Cl)c2ccc3ccccc3c21
inactive: [18] 93 % of control | [19] 90 % of control | [20] 90 % of control

Clc1c2ccccc2c(Cl)c2ccccc12
inactive: dose: 3.1 mg/kg/injection, schedule: Q04DX002 (ip), vehicle: Klucel (hydroxypropylcellulose) (HPC) 89 % of control | dose: 6.25 mg/kg/injection, schedule: Q04DX002 (ip), vehicle: Klucel (hydroxypropylcellulose) (HPC) 100 % of control | dose: 12.5 mg/kg/injection, schedule: Q04DX002 (ip), vehicle: Klucel (hydroxypropylcellulose) (HPC) 93 % of control | dose: 25.0 mg/kg/injection, schedule: Q04DX002 (ip), vehicle: Klucel (hydroxypropylcellulose) (HPC) 90 % of control

NSc1ccc([N+](=O)[O-])cc1
inactive: dose: 12.5 mg/kg/injection, schedule: Q01DX001 (ip), vehicle: other 102 % of control | dose: 25.0 mg/kg/injection, schedule: Q01DX001 (ip), vehicle: other 97 % of control | dose: 50.0 mg/kg/injection, schedule: Q01DX001 (ip), vehicle: other 101 % of control | [1] 96 % of control | [2] 97 % of control | [3] 103 % of control

C=CCSc1n[nH]c(=O)[nH]c1=O
inactive: [1] 111 % of control | [2] 92 % of control | [3] 103 % of control

CC(=O)Nc1ccc(Cl)nc1
inactive: [8] 98 % of control | [9] 94 % of control | [10] 92 % of control | [11] 101 % of control | [12] 93 % of control | [13] 91 % of control

Nc1ccccc1SC(CC(=O)c1ccccc1)c1c(Cl)cccc1Cl (stereo not drawn)
inactive: dose: 100.0 mg/kg/injection, schedule: Q01DX005 (ip), vehicle: Klucel (hydroxypropylcellulose) (HPC) 94 % of control | [5] 110 % of control | dose: 200.0 mg/kg/injection, schedule: Q01DX005 (ip), vehicle: Klucel (hydroxypropylcellulose) (HPC) 108 % of control | [6] 95 % of control | dose: 400.0 mg/kg/injection, schedule: Q01DX005 (ip), vehicle: Klucel (hydroxypropylcellulose) (HPC) 94 % of control | [7] 95 % of control

O=C1CCC(=O)N1C1C=CC=CC=C1
inactive: [21] 98 % of control | dose: 200.0 mg/kg/injection, schedule: Q04DX003 (ip), vehicle: saline with Tween-80 97 % of control | dose: 400.0 mg/kg/injection, schedule: Q04DX003 (ip), vehicle: saline with Tween-80 96 % of control

CC(/C=N/NC(N)=S)Cc1ccc(C(C)C)cc1 (stereo not drawn)
inactive: [15] 98 % of control | dose: 18.0 mg/kg/injection, schedule: Q01DX009 (ip), vehicle: alcohol 95 % of control | dose: 28.0 mg/kg/injection, schedule: Q01DX009 (ip), vehicle: alcohol 95 % of control

Cc1cc2no[n+]([O-])c2cc1C
inactive: dose: 50.0 mg/kg/injection, schedule: Q01DX009 (ip), vehicle: Klucel (hydroxypropylcellulose) (HPC) 108 % of control | [22] 100 % of control | [8] 106 % of control | [23] 96 % of control | [10] 114 % of control

O=C(Nc1ccccc1)OC1CCCCC1OC(=O)Nc1ccccc1 (stereo not drawn)
inactive: [18] 87 % of control | [19] 107 % of control | [20] 97 % of control

O=c1[nH]nc2ccccn12
inactive: [22] 96 % of control | [9] 101 % of control | [23] 102 % of control | [11] 101 % of control | dose: 400.0 mg/kg/injection, schedule: Q01DX001 (ip), vehicle: Klucel (hydroxypropylcellulose) (HPC) 96 % of control | [13] 95 % of control

Nc1nc(-c2ccccc2)cs1
inactive: dose: 25.0 mg/kg/injection, schedule: Q01DX009 (ip), vehicle: saline with Tween-80 106 % of control | [16] 100 % of control | dose: 50.0 mg/kg/injection, schedule: Q01DX009 (ip), vehicle: saline with Tween-80 108 % of control | [17] 92 % of control | dose: 100.0 mg/kg/injection, schedule: Q01DX009 (ip), vehicle: saline with Tween-80 106 % of control | [21] 92 % of control
